In patent US7285567B2, “Halogenated benzamide derivatives” (Romark Laboratories, L.C., priority 2005, dated 2007):
Read-outs that look alike come from different tables or passages of the source.

How the values were obtained:
[1] = system: hepatitis C virus (HCV) replicon; assay: HCV replication in AVA5 replicon cell culture, 3-day assay; type: cell-based; settings: AVA5 cells
Procedure: (§1) Anti-Hepatitis C Virus (HCV) analyses and an assessment of cytotoxicity were performed in a 3-day assay in the HCV replicon-containing human hepatoblastoma cell line, AVA5 (Okuse, C., Rinaudo, J. A., Farrar, K., Wells, F. & Korba, B. E. Enhancement of antiviral activity against hepatitis C virus in vitro by interferon combination therapy. Antivir. Res. 65, 23-34 (2005)) as previously described (Blight, K. J., Kolykhalov, A. A. & Rice, C. M. Efficient initiation of HCV RNA replication in cell culture. Science 290, 1972-1974 (2000)).
(§2) Values presented (±standard deviations [S.D.]) were calculated by linear regression analysis using data combined from all treated cultures. S.D. were calculated using the standard error of regression generated from the linear regression analyses (QuattroPro™). EC50, EC90=drug concentration at which a 2-fold, or a 10-fold depression of HCV RNA (relative to the average levels in untreated cultures), respectively, was observed. CC50=drug concentration at which a 2-fold depression of neutral red dye uptake was observed relative to the average levels in untreated cultures. Selectivity index=CC50/EC50.

[2] = system: H3N2 influenza virus, type A; assay: Multiple cycle CPE inhibition assay on MDCK cell monolayers; type: cell-based; settings: 0% EMEM + Hepes + Trypsin
Procedure: (§3) EC50 (μg/mL) values for 2-(acetolyloxy)-3-methyl-N-(5-bromo-2-thiazolyl)benzamide (RM4803), 2-(acetolyloxy)-3-methyl-N-(5-chloro-2-thiazolyl)benzamide (RM4804), and 2-(acetolyloxy)-3-methoxy-N-(5-bromo-2-thiazolyl)benzamide (RM4806), on Human Rhinovirus Type 39 (HRV-39), and H3N2 influenza virus, type A, using a multiple cycle CPE inhibition assay on OH-I Hela and Madin Darby Canine Kidney (MDCK) cell monolayers, respectively, were measured by microscopic and spectrophotometric methods. Pirodavir and Oseltamivir were included as positive controls.

[3] = system: anaerobic Gram-positive non-sporeforming rods; assay: CLSI agar dilution MIC, anaerobic clinical isolates; type: cell-based; settings: Gram + rods (14 isolates), 48 h
[4] = system: anaerobic bacteria (all 142 isolates); assay: CLSI agar dilution MIC, all anaerobic clinical isolates; type: cell-based
Trypanosoma brucei = assay: Antiparasite test by conventional means; type: cell-based; settings: at concentrations of at least 50 μg/mL
Procedure: (§4) The above identified compounds according to Formula (IV) were tested by conventional means against Trichomis vaginalis, Giardia Intestinalis, and Trypanosoma brucei.

Trichomonas vaginalis = assay: Antiparasite test by conventional means; type: cell-based; settings: at concentrations of at least 50 μg/mL
Procedure: as §4

Giardia intestinalis = assay: Antiparasite test by conventional means; type: cell-based; settings: at concentrations of at least 50 μg/mL
Procedure: as §4

[5] = system: Herpes Simplex type 1: strain F1; assay: microbe, parasite or virus in culture; type: cell-based, Herpes Simplex virus type 1; settings: Herpes Simplex type 1 strain F1, HEp-2 cell culture
[6] = system: Rotavirus: Simian Rotavirus SA-11; assay: microbe, parasite or virus in culture; type: cell-based; settings: Simian rotavirus SA-11, MA104 cell culture
[7] = system: Coronavirus: canine coronavirus strain S-378; assay: microbe, parasite or virus in culture; type: cell-based; settings: canine coronavirus strain S-378, A72 cell culture
[8] = Cytotoxicity in AVA5 cells (neutral red dye uptake); type: cell-based, human; settings: human, 2-fold depression of neutral red dye uptake
Procedure: as §1, §2

[9] = system: Rhabdovirus: Vesicular stomatitis virus; assay: microbe, parasite or virus in culture; type: cell-based
[10] = system: Human Rhinovirus Type 39 (HRV-39); assay: Multiple cycle CPE inhibition assay on OH-I Hela cell monolayers; type: cell-based; settings: Rhinovirus A, HRV39, HRV-39, OH-Hela, 2% McCoys + Hepes Buffer
Procedure: as §3

Prevotella/Porphyromonas = assay: CLSI agar dilution MIC, anaerobic clinical isolates; type: cell-based; settings: Prev/Porphy (26 isolates), 48 h
Procedure: (§5) Methods. Recent clinical anaerobic isolates (2000 to date) comprised 40 B. fragilis group, 26 Prevotella/Porphyromonas, 28 fusobacteria, 16 anaerobic Gram positive cocci, 14 anaerobic Gram-positive non-sporeforming rods and 18 clostridia. CLSI agar dilution MIC methodology with enriched Brucella blood agar and inocula of 1×10^5 cfu/spot was used. Plates were incubated in an anaerobic glove box at 35° C. for 48 h. Results.

fusobacteria = assay: as above; type: cell-based; settings: Fusobacteria (28 isolates), 48 h
Procedure: as §5

B. fragilis group = assay: as above; type: cell-based; settings: Bacteroides fragilis, B. fragilis gp (40 isolates), 48 h, 35° C.
Procedure: as §5

[11] = system: anaerobic Gram positive cocci; assay: as above; type: cell-based; settings: Gram + cocci (16 isolates), 48 h
[12] = Cytotoxicity in 2.2.15 cells (neutral red dye uptake); type: cell-based; settings: human, 2-fold depression of neutral red dye uptake
Procedure: Anti-Hepatitis B Virus (HBV) analyses and an assessment of cytotoxicity were performed in a 9-day assay in the chronically-producing HBV human hepatoblastoma cell line, 2.2.15, as previously described (Korba, B. E. & Gerin, J. L. Use of a standardized cell culture assay to assess activities of nucleosides analogues against hepatitis B virus replication. Antivir. Res. 19, 55-70 (1992)).
Values presented (±standard deviations [S.D.]) were calculated by linear regression analysis using data combined from all treated cultures. S.D. were calculated using the standard error of regression generated from linear regression analyses (QuattroPro™). EC50, EC90=drug concentration at which a 2-fold, or a 10-fold depression of HBV DNA (relative to the average levels in untreated cultures), respectively, was observed, CC50=drug concentration at which a 2-fold depression of neutral red dye uptake (relative to the average levels in untreated cultures) was observed, The EC90 values were used for the calculation of the Selectivity Indexes [S.I.] since at least a 3-fold depression of HBV levels is typically required to achieve statistical significance in this assay system. HBV R.I.=intracellular HBV DNA replication intermediate.

[13] = microscopic reading, read-out: EC50, Microscopic
[14] = spectrophotometric reading, read-out: EC50, Spectrophotometer
[15] = All (142 isolates), agar dilution, 48 h

## CC(=O)Oc1c(C)cccc1C(=O)Nc1ncc(Br)s1 [RM-4803, 2-(acetolyloxy)-3-methyl-N-(5-bromo-2-thiazolyl)benzamide]
[1]; CC50/EC50
  Selectivity Index: 7.6
[1]; Hepatitis C virus, 2-fold depression of HCV RNA, read-out: EC50
  EC50: 37 ± 2.7 µM
[1]; Hepatitis C virus, 10-fold depression of HCV RNA, read-out: EC90
  EC90: 98 ± 9.3 µM
[2]; [13]
  EC50: 0.45 µg/mL
[2]; [14]
  EC50: 0.18 µg/mL
[3]
  MIC50: > 32 µg/mL
  MIC90: > 32 µg/mL
[4]; [15]
  MIC50: > 32 µg/mL
  MIC90: > 32 µg/mL
[4]; summary of MIC results
  Activity against anaerobic bacteria groups (summary in words): without significant activity
Trypanosoma brucei
  antiparasite activity: failed to exhibit antiparasite activitity
Trichomonas vaginalis
  antiparasite activity: failed to exhibit antiparasite activitity
Giardia intestinalis
  antiparasite activity: failed to exhibit antiparasite activitity
[5]; CC50 by MTT
  SI (selectivity index) = CC50/EC50: 3
[5]; Human alphaherpesvirus 1
  EC50: 5.6 µM
[6]; Rotavirus A
  EC50: 60 nM
[6]; CC50 by MTT
  SI (selectivity index) = CC50/EC50: > 2500
[7]; Alphacoronavirus 1, A-72
  EC50: 4.2 µM
[7]; CC50 by MTT
  SI (selectivity index) = CC50/EC50: 13
[8]
  CC50 at 3 day: 282 ± 21 µM
[9]; MA104
  EC50: 2800 nM
[9]; MA104 cell culture, CC50 by MTT
  SI (selectivity index) = CC50/EC50: > 50
[10]; [13]
  EC50: 0.06 µg/mL
[10]; [14]
  EC50: 0.03 µg/mL
Prevotella/Porphyromonas
  MIC50: > 32 µg/mL
  MIC90: > 32 µg/mL
fusobacteria
  MIC50: > 32 µg/mL
  MIC90: > 32 µg/mL
B. fragilis group
  MIC50: > 32 µg/mL
  MIC90: > 32 µg/mL
[11]
  MIC50: > 32 µg/mL
  MIC90: > 32 µg/mL
[12]
  CC50 at 9 day: > 1 mM
